Consider four compounds from patent publication US6835695B2, “Herbicidal Compositions” (Aventis CropScience GmbH, priority 2000, dated 2004).

The subject of this assay is monocotyledonous and dicotyledonous weed plants. The assay can be described thus: Post-emergence greenhouse test, herbicidal action scored visually (weeds not split). In kind it is in vivo. The settings on record: with Genapol X 150, X 200, O 200 or Sapogenat T130, T 200, T 300, T 400, T 500 at e.g. 50, 100, 300, 500 g/ha, vs no surfactant or low-EO surfactant (Genapol O 060, Sapogenat T 040). The procedure:
Seeds or rhizome pieces of monocotyledonous and dicotyledonous weed plants were placed in sandy loamy soil in plastic pots, covered with soil and grown in the greenhouse under favorable growth conditions. Three weeks after sowing, the test plants were treated in the three-leaf stage. The compounds according to the invention which were formulated in the form of wettable powders or emulsion concentrates were sprayed onto the green plant parts at an application rate of 600 to 800 l of water/ha (converted), in various dosages. After the test plants had been left to stand in the greenhouse under optimum growth conditions for 3 to 4 weeks the effect of the preparations was scored visually by comparison with untreated controls.

For `CCS(=O)(=O)c1ccc(C(=O)C2C(=O)CCCC2=O)c(Cl)c1C1=NOC(CC#N)C1` (stereo not shown) [Herbicide A4], the “action of the herbicide when combined with a high-EO surfactant” value (herbicide 80 g/ha) was “increased markedly”. Same read-out and setting: the value for `CCOCC1CC(c2c(S(=O)(=O)CC)ccc(C(=O)C3C(=O)CCCC3=O)c2Cl)=NO1` (stereo not shown) [Herbicide A6] was “increased markedly”; that for `CS(=O)(=O)c1ccc(C(=O)C2C(=O)CCCC2=O)c(Cl)c1COCC(F)(F)F` [Herbicide A9] was “increased markedly”.

Regarding `CS(=O)(=O)c1ccc(C(=O)C2C(=O)CCCC2=O)c([N+](=O)[O-])c1` [Herbicide A1], the “action of the herbicide when combined with a high-EO surfactant” value (herbicide 200 g/ha) is “increased markedly”.
